Experimental data as given in US9475766B2, “Substituted aromatic sulfur compounds and methods of their use” (Cephalon, Inc., priority 2011, dated 2016).

Assays:
[1] = test system: BxPC3 pancreatic cell line; test: Cell survival and adhesion assay (luciferase), BxPC3; type: cell-based; settings: BXPC-3, 5 hours, BxPC3 cells overlayed onto human mesothelial cell monolayers, read-out: relative reduction in Luciferase activity, BxPC3 10 μM
Summary of the method: (§1)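 Luciferase-expressing tumour cells (10^5) were overlaid on confluent human mesothelial cell monolayers together with compound or DMSO for 5 hours. Non-adherent cells were washed off; adherent, surviving cells were lysed, protein-normalised and quantified by firefly luciferase luminescence.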

[2] = test system: HT29 colon cancer cell line; test: Cell survival and adhesion assay (luciferase), HT29; type: cell-based; settings: HT-29, 5 hours, HT29 cells overlayed onto human mesothelial cell monolayers, read-out: relative reduction in Luciferase activity, HT29 10 μM
Method: SU86 is a pancreatic cancer cell line. HT29 is a colon cancer cell line. BxPC3 is a pancreatic cell line. A2780 is an ovarian cancer cell line.
BxPc-3 and Su.86.86 pancreatic and HT-29 colon and A2780 ovarian cancer cell lines were purchased from ATCC and cultured in DMEM supplemented with 10% fetal bovine serum, glutamine, penicillin, and streptomycin. All cells were cultured at 37° C. in a humidified incubator in a 5% CO2 atmosphere. The cancer cell lines were transduced with a retrovirus containing pLuc-puro, a constitutive luciferase reporter and selected in […] media. Transient transfection of a full-length human c-FLIP construct in the vector pcDNA3 was performed as previously described. Scaife et al. Cancer Research 2002, 62: 6870-78.
Pancreatic cancer cell cultures (BxPc-3 and Su.86.86) and colon cancer (HT-29) and ovarian cancer (A2780) cells that were stably transfected with a firefly luciferase construct were transiently suspended with trypsin-PBS. 10^5 cells were overlayed onto confluent monolayers of human mesothelial cells in 96-well plates while simultaneously adding various concentrations of compounds of the invention or DMSO for 5 hours. The non-adherent cells were carefully washed away from the wells twice with 100 μl/well of blocking buffer (1% BSA in PBS) and twice again with ice-cold PBS. Adherent and surviving cells were detected by luciferase activity in a luminometer as follows. The cells were lysed in 0.1% TritonX-100, 25 mM Gly-Gly (7.8), MgSO4, 4 mM EGTA, 1 mM DTT. The total protein concentration was normalized with lysis buffer. 50 μl of cell lysate was added per well of a 96-well microtiter plate. 50 μl of luciferin substrate (Promega) was added per well and then the light output determined in a luminometer.

[3] = test system: A2780 ovarian cancer cell line; test: Cell survival and adhesion assay (luciferase), A2780; type: cell-based; settings: 5 hours, A2780 cells overlayed onto human mesothelial cell monolayers, read-out: relative reduction in Luciferase activity, A2780 10 μM
Summary of the method: as §1

[4] = test system: SU86 pancreatic cancer cell line (Su.86.86); test: Cell survival and adhesion assay (luciferase), SU86; type: cell-based; settings: 5 hours, SU86 cells overlayed onto human mesothelial cell monolayers, read-out: relative reduction in Luciferase activity, SU86 10 μM
Summary of the method: as §1

| Structure (SMILES) | melting point | inhibition at 10 µM [1] | inhibition at 10 µM [2] | inhibition at 10 µM [3] | inhibition at 10 µM [4] |
| --- | --- | --- | --- | --- | --- |
| CCOC(=O)/C=C/S(=O)(=O)c1ccc(C(C)(C)C)cc1 [Example 59, (E)-3-(4-tert-Butyl-benzenesulfonyl)-acrylic acid ethyl ester] | 88 to 91 °C | 50 to 85% | 10 to 50% | 50 to 85% | 10 to 50% |
| C/C=C/S(=O)(=O)c1ccc(C(C)(C)C)cc1 [Example 56, 1-tert-Butyl-4-[((E)-prop-1-ene)-1-sulfonyl]-benzene] | 80 °C | < 10% | < 10% | < 10% | < 10% |
| CC(C)(C(=O)NC1CCCCC1)c1ccc(S(=O)(=O)/C=C/C#N)cc1 [Example 12, 2-[4-((E)-2-Cyano-ethenesulfonyl)-phenyl]-N-cyclohexyl-isobutyramide] | 191 to 193 °C | 50 to 85% | < 10% | 50 to 85% | 50 to 85% |
| CC(C)(C)c1ccc(S(=O)(=O)/C=C/C(N)=O)cc1 [Example 55, (E)-3-(4-tert-Butyl-benzenesulfonyl)-acrylamide] | 151 °C | 50 to 85% | 10 to 50% | 10 to 50% | 10 to 50% |

More lines, main results first:

| melting point | Structure (SMILES) | inhibition at 10 µM [1] | inhibition at 10 µM [2] | inhibition at 10 µM [3] | inhibition at 10 µM [4] |
| --- | --- | --- | --- | --- | --- |
| 99 °C | C=C(c1ccccc1)S(=O)(=O)c1ccc(C(C)(C)C)cc1 [Example 58, 1-tert-Butyl-4-(1-phenyl-ethenesulfonyl)-benzene] | 50 to 85% | 10 to 50% | < 10% | 10 to 50% |
| 95 °C | CC(C)(C)c1ccc(S(=O)(=O)/C=C/c2ccccc2)cc1 [Example 57, 1-tert-Butyl-4-((E)-2-phenyl-ethenesulfonyl)-benzene] | < 10% | < 10% | < 10% | < 10% |
